Values of other authors, collected in US8017623B2 (Trinity Laboratories, Inc., priority 2008, dated 2011).
Structures can show the parent of a compound that is named as a salt. Where two headings read alike, the source gives them in different places.

Legend:
[1] = for peak plasma dextromethorphan concentration (mean) / peak plasma dextromethorphan concentrations (range): chronic oral dosing of 120 mg daily, divided doses
[2] = rat, normal
females = conditions: for mean plasma bromide concentration at the end of the treatment: females, three menstrual cycles
thyroid = conditions: rats, normal chloride intake
thyroid gland = conditions: rats fed diets containing 4800 or 19200 ppm; from 3 days, constant over 12 weeks

COc1ccc2c(c1)[C@]13CCCC[C@@H]1[C@H](C2)N(C)CC3 [Dextromethorphan Hydrobromide]
solubility (at 20° C.): 1.5%
solubility (at 85° C.): 25%
solubility (below 20° C.): sparingly soluble

COc1ccc2c(c1)[C@]13CCCC[C@@H]1[C@H](C2)N(C)CC3 [Dextromethorphan, 3-methoxy-17-methyl-9a, 13a, 14 a-morphinan]
conjugated dextrorphan excreted ([1]; 24 hour period): up to 30%
dose excreted unchanged in the urine ([1]; 24 hour period): less than 2.5%
peak plasma dextromethorphan concentration (mean) ([1]; extensive metabolizers): 2.4 ng/mL
peak plasma dextromethorphan concentrations (range) ([1]; extensive metabolizers): 0.5 to 5.9 ng/mL
peak plasma dextromethorphan concentration (mean) ([1]; poor metabolizers): 207 ng/mL
peak plasma dextromethorphan concentrations (range) ([1]; poor metabolizers): 182 to 231 ng/mL
peak concentration in serum ([1]; single 20 mg oral dose): 1.8 ng/mL
time of peak serum concentration ([1]; single 20 mg oral dose): 2.5 h

Br [bromide]
half-life [2]: 3 days
quantitative analysis of the electroencephalogram (EEG) (females; females receiving 9 mg Br/kg/day): only a marginal effect
serum thyroxine, free thyroxine, triiodothyronine, thyrotropine and thyroxine-binding globulin (females; females, 0, 4 and 9 mg Br/kg/day): In none of the three groups were significant changes observed
mean plasma bromide concentration at the end of the treatment (females; 4 mg Br/kg/day): 3.22 mmol/L
mean plasma bromide concentration at the end of the treatment (females; 9 mg Br/kg/day): 7.99 mmol/L
NOAEL based on effects on the thyroid (thyroid): 240 ppm bromide
NOAEL based on effects on the thyroid (thyroid; equivalent dose): 12 mg bromide/kg bw/day

[Br-].[Na+] [sodium bromide]
medical history, physical examination, haematology, clinical chemistry and urine analyses (healthy volunteers; 4 or 9 mg Br/kg/day, except for incidental nausea): no changes were observed
serum thyroxine and triiodothyronine at the end of the study compared to pre-administration values (healthy volunteers; females receiving 9 mg Br/kg/day, concentrations remained within normal limits): significant increase
mean plasma bromide concentration at the end of treatment (healthy volunteers; females, 4 mg Br/kg/day oral, three full cycles): 3.05 mmol/L
mean plasma bromide concentration at the end of treatment (healthy volunteers; females, 9 mg Br/kg/day oral, three full cycles): 4.93 mmol/L
mean plasma bromide concentration at the end of treatment (healthy volunteers; males, 4 mg Br/kg/day oral, 12 weeks): 2.14 mmol/L
mean plasma bromide concentration at the end of treatment (healthy volunteers; males, 9 mg Br/kg/day oral, 12 weeks): 4.30 mmol/L
thyroxine concentrations (thyroid gland): significantly decreased
NOAEL based on effects on the thyroid (thyroid): 300 ppm sodium bromide
effect on reproduction (rats; 1200 ppm): no effects on reproduction were observed
effect on reproduction (rats; 4800 ppm): fertility and viability of the offspring were reduced
effect on reproduction (rats; 19200 ppm (highest dose level)): complete infertility
